The text below walks through data of patent publication US20250248979A1, “NOVEL GPX4 INHIBITORS AND USES THEREOF” (THE TRUSTEES OF COLUMBIA UNIVERSITY IN THE CITY OF NEW YORK, priority 2022, published 2025).

For the experiment, the system named is HT-1080 cells. Description: Cellular dose response assay, HT-1080 with and without Fer-1. The format is cell-based, human. As to conditions: for Selectivity: ferroptosis selectivity, IC50 with Fer-1 / IC50. From the text: HT-1080 (human [Homo sapiens] […] fibrosarcoma), A-673 (human [Homo sapiens] […] Ewing's sarcoma), and SK-HEP-1 (human [Homo sapiens] […] hepatic adenocarcinoma), cells were obtained from ATCC. Huh7 (human [Homo sapiens] […] hepatocellular carcinoma), HLF (human [Homo sapiens] […] hepatocellular carcinoma), HepG2 (human [Homo sapiens] […] hepatocellular carcinoma), cells were obtained from the Cancer Cell Bank at Columbia University Irving Medical Center. HT-1080, A-673, Huh-7, and HLF cells were grown in Dulbecco's Modified Eagle Medium (DMEM) supplemented with 10% heat inactivated fetal bovine serum (HI-FBS), 1% non-essential amino acids, and 1% penicillin streptomycin. HepG2 and SK-HEP-1 cells were grown in Eagle's Minimum Essential Medium (EMEM) supplemented with 10% HI-FBS, and 1% penicillin-streptomycin. All cells were cultured at 37° C. and 5% CO2.
HT-1080, HepG2, Huh7, HLF, and SK-HEP-1 cells were seeded into opaque white 384-well plates at 1500 cells per well then incubated at 37° C. with 5% CO2 overnight. The next day, compounds of interest were dissolved in DMSO and 12-point 2-fold dilution series were prepared with and without Fer-1. Cells were treated in triplicate (final DMSO concentration of 0.4% in all wells, including DMSO-only control wells) and incubated for a further 48 hours at 37° C. and 5% CO2. Cell viability was evaluated using CellTiter-Glo (Promega G7573) and luminescence was recorded on a Victor 5 plate reader. Data were analyzed in GraphPad Prism 9 and error bars represent standard deviation values for three technical replicates in a representative experiment.

[1] abbreviates: with Fer-1, Table 10, read-out: IC50 (μM) HT1080 + Fer-1.
Where [2] appears, read: without Fer-1, Table 10, read-out: IC50 (μM) HT1080.

SMILES strings stand for the structures. Read-outs that look alike come from different tables or passages of the source.

For the compound `CC(=O)c1cccc(Cn2nc3cc(-c4ccc(N5CCOCC5)c(Cl)c4)ccc3c2C(=O)NC(C)(C)COC(=O)CCl)c1` [QW-911], the Selectivity was found to be 3.8. Also, the IC50 under setting [1] is 5 µM. Further, the 50% inhibitory concentration (IC50) under setting [2] was 1.3 µM.

`CC(C)(COC(=O)CCl)NC(=O)c1c2ccc(Br)cc2nn1Cc1ccc(-c2ccc(N3CCOCC3)c(Cl)c2)cc1` [QW-912] gave a Selectivity of 3.4. Under setting [1], the 50% inhibitory concentration (IC50) worked out at 5.1 µM. Also, under setting [2], the IC50 turned out to be 1.5 µM.

The compound `COc1ccc(-c2ccc3c(C(=O)NC(C)(C)CNC(=O)CCl)nn(Cc4cc(Cl)cc(Cl)c4)c3c2)cc1Cl` [QW-927] gave a Selectivity of 5.1. The IC50 under setting [1] is 8.2 µM. Besides, the half-inhibitory concentration (IC50) under setting [2] is 1.6 µM.

The compound `CC(C)(CNC(=O)CCl)NC(=O)c1nn(Cc2cc(Cl)cc(Cl)c2)c2cc(-c3ccc(N4CCOCC4)c(Cl)c3)ccc12` [QW-929] registered a Selectivity of 2.9. Further, under setting [1], the half-inhibitory concentration (IC50) is 4.6 µM. Besides, the concentration for half-maximal inhibition (IC50) under setting [2] was 1.6 µM.

The compound `COc1ccc(-c2ccc3c(C(=O)NC(C)(C)COC(=O)CCl)nn(Cc4cc(C(F)(F)F)cc(C(F)(F)F)c4)c3c2)cc1Cl` [QW-930] had a Selectivity of 0.6. Also, the half-inhibitory concentration (IC50) under setting [1] is 13 µM. Moreover, the 50% inhibitory concentration (IC50) under setting [2] worked out at 21.8 µM.

With `CC(C)(COC(=O)CCl)NC(=O)c1nn(Cc2cc(C(F)(F)F)cc(C(F)(F)F)c2)c2cc(-c3ccc(N4CCOCC4)c(Cl)c3)ccc12` [QW-931], the Selectivity came to 6.6. In addition, under setting [1], the IC50 is 34.3 µM. Further, the concentration for half-maximal inhibition (IC50) under setting [2] stood at 5.2 µM.

`CC(C)(COC(=O)CCl)NC(=O)c1c2ccc(-c3ccc(N4CCOCC4)c(Cl)c3)cc2nn1Cc1cc(Cl)cc(Cl)c1` [QW-937] returned a Selectivity of 2.7. Also, the “fold reduced activity relative to QW-852” value (HT1080) was found to be 25 fold. Also, for the setting “read-out: IC50 HT1080”, the concentration for half-maximal inhibition (IC50) is 1 µM. Further, under setting [1], the IC50 is 2.7 µM.

Consider `CC(C)(COC(=O)CCl)NC(=O)c1c2ccc(-c3ccc(N4CCOCC4)c(Cl)c3)cc2nn1Cc1cc(C(F)(F)F)cc(C(F)(F)F)c1` [QW-945], for which the Selectivity turned out to be 4.0. The IC50 under setting [1] turned out to be 10.7 µM. For the same compound, the concentration for half-maximal inhibition (IC50) under setting [2] was 2.7 µM.

The compound `COc1ccc(-c2ccc3c(C(=O)NC(C)(C)COC(=O)CCl)nn(Cc4cc(Cl)ccc4Cl)c3c2)cc1Cl` [QW-946] showed a Selectivity of 133.4. In addition, the IC50 under setting [1] stood at 454 µM. The IC50 under setting [2] amounted to 3.4 µM.

As for `CC(C)(COC(=O)CCl)NC(=O)c1nn(Cc2cc(Cl)cc(Cl)c2)c2cc(Br)ccc12` [QW-954], the Selectivity is 2.0. Under setting [1], the IC50 was found to be 11.8 µM. Moreover, under setting [2], the half-maximal inhibitory concentration (IC50) was 5.9 µM.

Compound `COc1ccc(-c2ccc3c(C(=O)NC(C)(C)COC(=O)CCl)nn(Cc4cccc(Cl)c4Cl)c3c2)cc1Cl` [QW-958] gave a Selectivity of 13.7. The IC50 under setting [1] is 31.6 µM. Moreover, under setting [2], the IC50 is 2.3 µM.

Compound `CC(C)(COC(=O)CCl)NC(=O)c1nn(Cc2cccc(Cl)c2Cl)c2cc(-c3ccc(N4CCOCC4)c(Cl)c3)ccc12` [QW-959] had a Selectivity of 508.5. Moreover, the half-inhibitory concentration (IC50) under setting [1] was determined as 610 µM. Moreover, under setting [2], the half-maximal inhibitory concentration (IC50) came out at 1.2 µM.

`CC(C)(COC(=O)CCl)NC(=O)c1nn(Cc2ccc(Cl)c(Cl)c2)c2cc(-c3ccc(N4CCOCC4)c(Cl)c3)ccc12` [QW-968]: the half-inhibitory concentration (IC50) reads like this: under setting [1], above 40 µM; under setting [2], above 40 µM.

Consider `COc1ccc(-c2ccc3c(C(=O)NC(C)(C)COC(=O)CCl)n(Cc4ccc(Cl)c(Cl)c4)nc3c2)cc1Cl` [QW-972], for which the Selectivity came out at 1.5. Also, the IC50 under setting [1] is 5.5 µM. Besides, the concentration for half-maximal inhibition (IC50) under setting [2] was found to be 3.6 µM.

`CC(C)(COC(=O)CCl)NC(=O)c1c2ccc(-c3ccc(N4CCOCC4)c(Cl)c3)cc2nn1Cc1ccc(Cl)c(Cl)c1` [QW-973]: the Selectivity was 1.4. For the same compound, under setting [1], the half-maximal inhibitory concentration (IC50) was 5.8 µM. Moreover, under setting [2], the half-inhibitory concentration (IC50) amounted to 4.2 µM.

`COc1ccc(-c2ccc3c(c2)c(C(=O)NC(C)(C)COC(=O)CCl)nn3Cc2cc(Cl)cc(Cl)c2)cc1Cl` [QW-979] showed a Selectivity of 1.8. Further, under setting [1], the 50% inhibitory concentration (IC50) worked out at 12.5 µM. Further, under setting [2], the 50% inhibitory concentration (IC50) came to 6.9 µM.

The compound `CC(C)(COC(=O)CCl)NC(=O)c1nn(Cc2cc(Cl)cc(Cl)c2)c2ccc(-c3ccc(N4CCOCC4)c(Cl)c3)cc12` [QW-980] displayed a Selectivity of 1.5. For the same compound, under setting [1], the IC50 was 8.4 µM. Besides, the IC50 under setting [2] was determined as 5.5 µM.

In turn, `CCOc1ccc(-c2ccc3c(C(=O)NC(C)(C)COC(=O)CCl)nn(Cc4cc(Cl)cc(Cl)c4)c3c2)cc1Cl` [QW-983] displayed a Selectivity of 8.7. Also, the concentration for half-maximal inhibition (IC50) under setting [1] was 19.2 µM. Also, the IC50 under setting [2] came to 2.2 µM.

`CSc1ccc(-c2ccc3c(C(=O)NC(C)(C)COC(=O)CCl)nn(Cc4cc(Cl)cc(Cl)c4)c3c2)cc1Cl` [QW-984] registered a Selectivity above 53. The IC50 under setting [1] is above 40 µM. The 50% inhibitory concentration (IC50) under setting [2] worked out at 0.75 µM.

`CCCOc1ccc(-c2ccc3c(C(=O)NC(C)(C)COC(=O)CCl)nn(Cc4cc(Cl)cc(Cl)c4)c3c2)cc1Cl` [QW-987] yielded a Selectivity above 55. The IC50 under setting [1] is above 40 µM. For the same compound, the half-maximal inhibitory concentration (IC50) under setting [2] was determined as 0.72 µM.

Compound `CC(C)(COC(=O)CCl)NC(=O)c1nn(Cc2cc(Cl)cc(Cl)c2)c2cc(-c3ccc(N4CCOCC4)cc3)ccc12` [QW-988] showed a Selectivity of 6.7. Moreover, the IC50 under setting [1] was found to be 19.5 µM. For the same compound, the half-maximal inhibitory concentration (IC50) under setting [2] is 2.9 µM.

Turning to `CC(C)(COC(=O)CCl)NC(=O)c1nn(Cc2cc(Cl)cc(Cl)c2)c2cc(-c3ccc(OC(F)(F)F)c(Cl)c3)ccc12` [QW-991], the Selectivity is reported as 32.0. The half-inhibitory concentration (IC50) under setting [1] came to 21.1 µM. Besides, under setting [2], the IC50 was 0.66 µM.

As to `COC(=O)c1ccc(-c2ccc3c(C(=O)NC(C)(C)COC(=O)CCl)nn(Cc4cc(Cl)cc(Cl)c4)c3c2)cc1Cl` [QW-992], the Selectivity is listed as 7.5. Moreover, under setting [1], the IC50 was 23.3 µM. In addition, the IC50 under setting [2] amounted to 3.1 µM.

The compound `CC(C)(COC(=O)CCl)NC(=O)c1nn(Cc2cc(Cl)cc(Cl)c2)c2cc(-c3ccc(C(F)(F)F)c(Cl)c3)ccc12` [QW-995] returned a Selectivity of 1.1. Besides, the concentration for half-maximal inhibition (IC50) under setting [1] worked out at 47.1 µM. The IC50 under setting [2] turned out to be 42.3 µM.

In turn, `CC(C)Oc1c(Cl)cc(-c2ccc3c(C(=O)NC(C)(C)COC(=O)CCl)nn(Cc4cc(Cl)cc(Cl)c4)c3c2)cc1Cl` [QW-996] had a Selectivity of 17.8. Also, the 50% inhibitory concentration (IC50) under setting [1] turned out to be 12.8 µM. Besides, the IC50 under setting [2] amounted to 0.72 µM.

On to `COc1c(Cl)cc(-c2ccc3c(C(=O)NC(C)(C)COC(=O)CCl)nn(Cc4cc(Cl)cc(Cl)c4)c3c2)cc1Cl` [QW-998], for which the Selectivity was above 114.3. In addition, the IC50 under setting [1] is above 40 µM. The IC50 under setting [2] was determined as 0.35 µM.

With `CC(=O)OCC(C)(C)NC(=O)c1nn(Cc2cc(Cl)cc(Cl)c2)c2cc(-c3ccc(N4CCOCC4)c(Cl)c3)ccc12` [QW-999], for the setting “RSL3 as control”, the “ferroptosis induction / potency in HT-1080 cells, result in words” value is “inactive in cellular assay”. In addition, the IC50 reads like this: under setting [1], above 40 µM; under setting [2], above 40 µM.

With `CC(C)(COC(=O)C(Cl)Cl)NC(=O)c1nn(Cc2cc(Cl)cc(Cl)c2)c2cc(-c3ccc(N4CCOCC4)c(Cl)c3)ccc12` [QW-1000], the half-inhibitory concentration (IC50) by setting is: under setting [1], above 40 µM; under setting [2], above 40 µM.

Take `COC(=O)/C=C/C(=O)OCC(C)(C)NC(=O)c1nn(Cc2cc(Cl)cc(Cl)c2)c2cc(-c3ccc(N4CCOCC4)c(Cl)c3)ccc12` [QW-1001]: the IC50 runs as follows: under setting [1], above 40 µM; under setting [2], above 40 µM.

With `CC=CC(=O)OCC(C)(C)NC(=O)c1nn(Cc2cc(Cl)cc(Cl)c2)c2cc(-c3ccc(N4CCOCC4)c(Cl)c3)ccc12` [QW-1002], the IC50 runs as follows: under setting [1], above 40 µM; under setting [2], above 40 µM.

For orientation: IC50 means the midpoint of a concentration-inhibition curve.
